Where a SMILES comes first, the peptide text is derived from it. [ ]: non-standard residue; d: D form. Dolaproine = CO[C@@H]([C@@H]1CCCN1)[C@@H](C)C(=O)O; Dil = CC[C@H](C)[C@H](NC)[C@@H](CC(=O)O)OC; NMeV = CN[C@H](C(=O)O)C(C)C
Key:
[1] = test system: FR806-positive T cells; experiment: CCK8 assay for killing FR806-expressing T cells; assay type: cell-based, human; details: CCK8, 72 h, 10-1000 nM
Description: Experimental group: T cells expressing eGFP-FR806 after sorted in Example 3 were plated in a 96-well plate at 3×10^4 cells per well in 100 ul of medium, 5 replicate wells per drug concentration, and then a blank group of medium was set. Control group: T cells that were not infected with the virus were taken and plated in a 96-well plate according to the operation of the experimental group. […] After 72 h, 10 ul of CCK8 reagent (Dojindo) was added to each well and incubated at 37° C. for 3 h, and the absorbance was measured at 450 nm by a microplate reader to calculate the cell viability.
According to the above procedure, the sorted T cells infected with eGFP-FR806 were taken and plated in a 96-well plate at 3×10^4 cells per well in 100 ul of culture medium, 5 replicate wells per drug concentration, and then a blank group of medium was set. The control group was uninfected T cells, which were plated in a 96-well plate by the same method. Six concentrations of free MMAFs of 1000 nM, 500 nM, 100 nM, 50 nM, 10 nM and 0 nM were added to T cells at specific concentrations to prepare six gradients (i.e., the aforementioned six concentrations). After 72 h, 10 ul of CCK8 reagent (Dojindo) was added to each well for 3 h at 37° C., and the absorbance was measured at 450 nm by a microplate reader to calculate the cell viability. […]

[2] = test system: FR806-positive HEK293T; experiment: Cell killing experiment on EGFR+ HEK293T cells expressing FR806; assay type: cell-based
From the text: Moreover, the applicant selected EGFR+ HEK293T cells expressing FR806, and subjected them to cell killing experiments.

[3] = test system: FR806-negative HEK293T; experiment: Cell killing experiment on FR806-negative EGFR+ HEK293T cells; assay type: cell-based
[4] = target: T1, EGFR on Keratinocyte cells and HEK-293T cells (human, UniProt P00533 25-1210); experiment: FACS on Keratinocyte cells and HEK-293T cells expressing EGFR
T1 construct: whole, on cells; also called epidermal growth factor receptor

## CC[C@H](C)[C@@H]([C@@H](CC(=O)N1CCC[C@H]1[C@H](OC)[C@@H](C)C(=O)N[C@@H](Cc1ccccc1)C(=O)O)OC)N(C)C(=O)[C@@H](NC(=O)[C@@H](NC)C(C)C)C(C)C [Free MMAF, MMAF] (H-[NMeV]V[Dil][Dolaproine]F-OH)
[1]
  killing levels to T cells expressing and not expressing FR806: comparable
[2]
  killing of FR806-positive HEK293T: killed
[3]
  killing of FR806-negative HEK293T: killed

B1: CH12 antibody (antibody, human IgG1, kappa, V domains shown)
VH: DVQLQESGPGLVKPSQSLSLTCTVTAYSVTSDYAWNWIRQFPGNKLEWMGYISYSGTTRYNPSLKSRISITRDTSKNQFFLQLNSMTAEDTATYYCSRQGRGFPYWGQGTLVTVSA
VL: DILMTQSPSSMSVSLGDTVSITCHASQDINSNIGWLQQKPGKSFKGLIYHGTNLEDGVPSRFSGSGSGADYSLTISSLESEDFADYYCVQYAQFPWTFGGGTKLEIKR
notes: CH12 antibody as disclosed in CN 200810038848.8; detected with goat anti-human IgG
[4]
  binding result: no binding
